{"source": "patent US10800816B2", "about": "(Baxalta GmbH, priority 2012, dated 2020)", "key": {"in vitro": {"assay": "in vitro", "settings": "human, plasma"}, "[1]": {"settings": "mouse, plasma, 24 h"}, "TFPI [2]": {"test_system": "TFPI", "assay": "% Inhibition @ 0.63µM"}, "TFPI [3]": {"test_system": "TFPI", "assay": "% Inhibition @ 2.5µM"}, "TFPI [4]": {"test_system": "TFPI", "assay": "FXa Inhibition assay | EC50 (µM)"}, "TFPI [5]": {"test_system": "TFPI", "assay": "% Inhibition @ 0.63µM", "remark": "listed apart in the source"}, "TFPI [6]": {"test_system": "TFPI", "assay": "% Inhibition @ 2.5µM", "remark": "listed apart in the source"}, "TFPI [7]": {"test_system": "TFPI", "assay": "Progress Curves of Inhibition of FXa | % Inhibit (2.5μM)", "experimental": "Head of the field: Progress Curves of Inhibition of FXa | % Inhibit (2.5μM)"}, "TFPI [8]": {"test_system": "TFPI", "assay": "Extrinsic Tenase Inhibition assay | % Inhibition @ 2.5μM"}}, "note": "Where a SMILES comes first, the peptide text is derived from it. Bridges are numbered along the chain shown (N, C = ends). [ ]: non-standard residue; d: D form. The star is where a group is joined. Bta = N[C@@H](Cc1csc2ccccc12)C(=O)O; Tle = CC(C)(C)[C@H](N)C(=O)O; hCys = N[C@@H](CCS)C(=O)O; Hexanoyl = CCCCCC(=O)*; Aib = CC(C)(N)C(=O)O; Acm = CC(=O)NC*; Sar = CNCC(=O)O", "data": [{"compound": "CC(=O)N[C@@H](Cc1ccccc1)C(=O)N[C@@H](CCC(N)=O)C(=O)N[C@@H](CO)C(=O)N[C@@H](CCCCN)C(=O)N(C)CC(=O)N[C@@H](CC(N)=O)C(=O)N[C@H](C(=O)N[C@@H](Cc1ccccc1)C(=O)N[C@H](C(=O)N[C@@H](CC(=O)O)C(=O)NCC(=O)N[C@@H](Cc1ccc(O)cc1)C(=O)N[C@@H](Cc1ccccc1)C(=O)N[C@@H](CCC(=O)O)C(=O)N[C@@H](CCCNC(=N)N)C(=O)N[C@@H](CC(C)C)C(=O)N[C@@H](CCCNC(=N)N)C(=O)N[C@@H](C)C(=O)N[C@@H](CCCCN)C(=O)N[C@@H](CC(C)C)C(N)=O)C(C)C)C(C)C", "note": "[JBT0717] (Ac-FQSK[Sar]NVFVDGYFERLRAKL-NH2)", "values": [{"measurement": "Plasma Stability (half life in minutes) human", "result": ">2", "unit": "h"}]}, {"compound": "CC(=O)N[C@@H](Cc1ccccc1)C(=O)N[C@@H](CCC(N)=O)C(=O)N[C@@H](CO)C(=O)N[C@@H](CCCCN)C(=O)N1CCC[C@@H]1C(=O)N[C@@H](CC(N)=O)C(=O)N[C@H](C(=O)N[C@@H](Cc1c[nH]cn1)C(=O)N[C@H](C(=O)N[C@@H](CC(=O)O)C(=O)N[C@H](C)C(=O)N[C@@H](Cc1ccc(O)cc1)C(=O)N[C@@H](Cc1ccccc1)C(=O)N[C@@H](CCC(=O)O)C(=O)N[C@@H](CCCNC(=N)N)C(=O)N[C@@H](CC(C)C)C(=O)NC(C)(C)C(=O)N[C@@H](C)C(=O)N[C@@H](CCCCN)C(=O)N[C@@H](CC(C)C)C(N)=O)C(C)C)C(C)C", "note": "[JBT2414] (Ac-FQSK[dP]NVHVD[dA]YFERL[Aib]AKL-NH2)", "values": [{"measurement": "remaining at 24 h", "setting": "in vitro", "result": 100, "unit": "%"}]}, {"compound": "CC(=O)N[C@@H](Cc1ccccc1)C(=O)N[C@@H](CCC(N)=O)C(=O)N[C@@H](CO)C(=O)N[C@@H](CCCCN)C(=O)N1CCC[C@@H]1C(=O)N[C@@H](CC(N)=O)C(=O)N[C@H](C(=O)N[C@@H](Cc1c[nH]cn1)C(=O)N[C@H](C(=O)N1CCC[C@H]1C(=O)N[C@@H]1CSSCC[C@@H](C(=O)N[C@@H](CCCNC(=N)N)C(=O)N[C@@H](CC(C)C)C(=O)NC(C)(C)C(=O)N[C@@H](C)C(=O)N[C@@H](CCCCN)C(=O)N[C@@H](CC(C)C)C(N)=O)NC(=O)[C@H](Cc2csc3ccccc23)NC(=O)[C@H](Cc2ccc(O)cc2)NC1=O)C(C)C)C(C)C", "note": "[JBT00002518, Ac-FQSKpNVHVP[cY-Bta--Hcy-]RL-Aib-AKL-NH2] (Ac-FQSK[dP]NVHVP[dC]Y[Bta][hCys]RL[Aib]AKL-NH2; disulfide 11-14)", "values": [{"measurement": "24 h Human Plasma Stability | Mean Remaining [%]", "setting": "FIGURE 78X", "result": 77.70, "unit": "%"}, {"measurement": "24 h Mouse Plasma Stability | Mean Remaining [%]", "setting": "FIGURE 78X", "result": 28.30, "unit": "%"}]}, {"compound": "CCCCCC(=O)N[C@@H](Cc1ccccc1)C(=O)N[C@@H](CCC(N)=O)C(=O)N[C@@H](CO)C(=O)N[C@@H](CCCCN)C(=O)N1CCC[C@@H]1C(=O)N[C@@H](CSCNC(C)=O)C(=O)N[C@H](C(=O)N[C@@H](Cc1cnc[nH]1)C(=O)N[C@H](C(=O)N[C@@H](CC(=O)O)C(=O)N[C@H](C)C(=O)N[C@@H](Cc1ccc(O)cc1)C(=O)N[C@@H](Cc1ccccc1)C(=O)N[C@@H](CCC(=O)O)C(=O)N[C@@H](CCCNC(=N)N)C(=O)N[C@@H](CC(C)C)C(=O)NC(C)(C)C(=O)N[C@@H](C)C(=O)N[C@@H](CCCCN)C(=O)N[C@@H](CC(C)C)C(N)=O)C(C)(C)C)C(C)C", "note": "[JBT2528, Hex-FQSKp-C(Acm)-VH-Tle-DaYFERL-Aib-AKL-NH2] (Hexanoyl-FQSK[dP]C(Acm)VH[Tle]D[dA]YFERL[Aib]AKL-NH2)", "values": [{"measurement": "remaining at 24 h", "setting": "in vitro", "result": 93, "unit": "%"}, {"measurement": "percentage of initial amount of peptide remaining", "setting": "[1]", "result": 35, "unit": "%"}]}, {"compound": "(Ac-FQSKpNVHVDGYFERL-Aib-AKLC-NH2)2-M2TriO [JBT00002522]", "values": [{"measurement": "24 h Human Plasma Stability | Mean Remaining [%]", "setting": "FIGURE 78X", "result": 46.90, "unit": "%"}, {"measurement": "24 h Mouse Plasma Stability | Mean Remaining [%]", "setting": "FIGURE 78X", "result": 18.05, "unit": "%"}]}, {"compound": "Ac-FQSK-Nmg-AVFVFGYFARLRAKL-NH2 (SEQ ID NO: 206) (Ac-FQSK[Sar]AVFVFGYFARLRAKL-NH2; SMILES CC(=O)N[C@@H](Cc1ccccc1)C(=O)N[C@@H](CCC(N)=O)C(=O)N[C@@H](CO)C(=O)N[C@@H](CCCCN)C(=O)N(C)CC(=O)N[C@@H](C)C(=O)N[C@H](C(=O)N[C@@H](Cc1ccccc1)C(=O)N[C@H](C(=O)N[C@@H](Cc1ccccc1)C(=O)NCC(=O)N[C@@H](Cc1ccc(O)cc1)C(=O)N[C@@H](Cc1ccccc1)C(=O)N[C@@H](C)C(=O)N[C@@H](CCCNC(=N)N)C(=O)N[C@@H](CC(C)C)C(=O)N[C@@H](CCCNC(=N)N)C(=O)N[C@@H](C)C(=O)N[C@@H](CCCCN)C(=O)N[C@@H](CC(C)C)C(N)=O)C(C)C)C(C)C) [JBT0681]", "values": [{"measurement": "% Inhibition @ […]", "setting": "TFPI [2]", "result": 52, "unit": "%"}, {"measurement": "% Inhibition @ […]", "setting": "TFPI [3]", "result": 52, "unit": "%"}]}, {"compound": "Ac-FQSKDNVFVTGYFERLRAKL-NH2 (SEQ ID NO: 33) [JBT0478]", "values": [{"measurement": "EC50", "setting": "TFPI [4]", "result": 760, "unit": "nM"}, {"measurement": "% Inhibition @ […]", "setting": "TFPI [5]", "result": 21, "unit": "%"}, {"measurement": "% Inhibition @ […]", "setting": "TFPI [6]", "result": 39, "unit": "%"}]}, {"compound": "Ac-FQSKGNVFLFGYFERLRAKL-NH2 (SEQ ID NO: 694) [JBT0658]", "values": [{"measurement": "% Inhibition @ […]", "setting": "TFPI [3]", "result": 6, "unit": "%"}]}, {"compound": "Ac-FQSKGNVFVDGYFDRLRAKL-NH2 (SEQ ID NO: 31) [JBT0476]", "values": [{"measurement": "EC50", "setting": "TFPI [4]", "result": 220, "unit": "nM"}, {"measurement": "% Inhibition @ […]", "setting": "TFPI [5]", "result": 38, "unit": "%"}, {"measurement": "% Inhibition @ […]", "setting": "TFPI [6]", "result": 49, "unit": "%"}]}, {"compound": "Ac-FQSKGNVFVEGYFERLRAKL-NH2 (SEQ ID NO: 30) [JBT0475]", "values": [{"measurement": "EC50", "setting": "TFPI [4]", "result": 250, "unit": "nM"}, {"measurement": "% Inhibition @ […]", "setting": "TFPI [5]", "result": 37, "unit": "%"}, {"measurement": "% Inhibition @ […]", "setting": "TFPI [6]", "result": 50, "unit": "%"}]}, {"compound": "Ac-FQSKGNVFVHGYFERLRAKL-NH2 (SEQ ID NO: 28) [JBT0473]", "values": [{"measurement": "EC50", "setting": "TFPI [4]", "result": 250, "unit": "nM"}, {"measurement": "% Inhibition @ […]", "setting": "TFPI [5]", "result": 31, "unit": "%"}, {"measurement": "% Inhibition @ […]", "setting": "TFPI [6]", "result": 45, "unit": "%"}]}, {"compound": "Ac-FQSKGNVFVNGYFERLRAKL-NH2 (SEQ ID NO: 27) [JBT0472]", "values": [{"measurement": "EC50", "setting": "TFPI [4]", "result": 370, "unit": "nM"}, {"measurement": "% Inhibition @ […]", "setting": "TFPI [5]", "result": 34, "unit": "%"}, {"measurement": "% Inhibition @ […]", "setting": "TFPI [6]", "result": 49, "unit": "%"}]}, {"compound": "Ac-KKYASFPLAVQLHVSKRSKEMAKK-NH2 [JBT0233]", "values": [{"measurement": "Progress Curves of Inhibition of FXa | % Inhibit ([…])", "setting": "TFPI [7]", "result": 6, "unit": "%"}]}, {"compound": "Ac-KRYKWF[CGMRDMKGTMSC]VWVKF-NH2 (SEQ ID NO: 1016) (Ac-KRYKWFCGMRDMKGTMSCVWVKF-NH2; disulfide 7-18; SMILES CSCC[C@@H]1NC(=O)CNC(=O)[C@@H](NC(=O)[C@H](Cc2ccccc2)NC(=O)[C@H](Cc2c[nH]c3ccccc23)NC(=O)[C@H](CCCCN)NC(=O)[C@H](Cc2ccc(O)cc2)NC(=O)[C@H](CCCNC(=N)N)NC(=O)[C@H](CCCCN)NC(C)=O)CSSC[C@@H](C(=O)N[C@H](C(=O)N[C@@H](Cc2c[nH]c3ccccc23)C(=O)N[C@H](C(=O)N[C@@H](CCCCN)C(=O)N[C@@H](Cc2ccccc2)C(N)=O)C(C)C)C(C)C)NC(=O)[C@H](CO)NC(=O)[C@H](CCSC)NC(=O)[C@H]([C@@H](C)O)NC(=O)CNC(=O)[C@H](CCCCN)NC(=O)[C@H](CCSC)NC(=O)[C@H](CC(=O)O)NC(=O)[C@H](CCCNC(=N)N)NC1=O) [JBT1474]", "values": [{"measurement": "Extrinsic Tenase Inhibition assay | % Inhibition @ […]", "setting": "TFPI [8]", "result": 59, "unit": "%"}]}, {"compound": "Ac-SFYKWF[CGMRDMKGTMSC]VWVKF-NH2 (SEQ ID NO:1010) [JBT1437]", "values": [{"measurement": "Extrinsic Tenase Inhibition assay | % Inhibition @ […]", "setting": "TFPI [8]", "result": 53, "unit": "%"}]}, {"compound": "Ac-SRYKWF[CGMKDMKGTMSC]VWVKF-NH2 (SEQ ID NO: 1017) (Ac-SRYKWFCGMKDMKGTMSCVWVKF-NH2; disulfide 7-18; SMILES CSCC[C@@H]1NC(=O)CNC(=O)[C@@H](NC(=O)[C@H](Cc2ccccc2)NC(=O)[C@H](Cc2c[nH]c3ccccc23)NC(=O)[C@H](CCCCN)NC(=O)[C@H](Cc2ccc(O)cc2)NC(=O)[C@H](CCCNC(=N)N)NC(=O)[C@H](CO)NC(C)=O)CSSC[C@@H](C(=O)N[C@H](C(=O)N[C@@H](Cc2c[nH]c3ccccc23)C(=O)N[C@H](C(=O)N[C@@H](CCCCN)C(=O)N[C@@H](Cc2ccccc2)C(N)=O)C(C)C)C(C)C)NC(=O)[C@H](CO)NC(=O)[C@H](CCSC)NC(=O)[C@H]([C@@H](C)O)NC(=O)CNC(=O)[C@H](CCCCN)NC(=O)[C@H](CCSC)NC(=O)[C@H](CC(=O)O)NC(=O)[C@H](CCCCN)NC1=O) [JBT1481]", "values": [{"measurement": "Extrinsic Tenase Inhibition assay | % Inhibition @ […]", "setting": "TFPI [8]", "result": 55, "unit": "%"}]}, {"compound": "Ac-SRYKWF[CGMRDMKGTLSC]VWVKF-NH2 (SEQ ID NO:1064) [JBT1506]", "values": [{"measurement": "Extrinsic Tenase Inhibition assay | % Inhibition @ […]", "setting": "TFPI [8]", "result": 45, "unit": "%"}]}]}
